“Also recorded” adds a separate entry of the source.
Legend:
[1] = test system: LPS stimulated human PBMCs; assay: LPS stimulated human PBMC, IL-1β and IL-6 ELISA; format: cell-based; conditions: for inhibition of IL-1β and IL-6: Experiment 12: free payloads 1000-0.15 nM
Procedure: The potency of novel steroids was assessed in a model of LPS stimulated human peripheral blood mononuclear cells (PBMCS). Stimulated PBMCs in this assay produce multiple pro-inflammatory cytokines1.
In all the following experiments, human PBMC, isolated from 1-2 healthy donors per study, were stimulated with LPS to induce cytokine production.
LPS was added either immediately after addition of free payload, or in the case of conjugates, four hours after addition of the conjugate.
Cells were plated in flat bottom 96 well plates at a final concentration of 150,000 cells/well, with technical duplicates for each condition.
Test agents were serially diluted in the assay media and added to a final concentration of 1,000 nM-1 nM or 0.2 nM depending on the assay or as a no treatment control.
LPS stimulation was added to a final concentration of 1 ng/ml.
Human IL-1β and IL-6 ELISA kits were used on supernatants according to vendor protocols. All graphs were prepared with GraphPad (Prism).

human PBMC = assay: Cytokine production (IL-1β, IL-6) at 24 hr by human PBMC incubated with 1 ng/mL LPS; format: cell-based; conditions: free steroid payloads, serial dilutions, 1 ng/mL LPS, 24 hr
Procedure: (§1) FIG. 51: INX-SM-3, INX-SM-4, and INX-SM-1 inhibit IL-1β (left) and IL-6 (right) production. Cytokine levels were measured at 24 hr for human PBMCS incubated with 1 ng/mL LPS and serial dilutions (1000-1 nM) of steroid payloads, with the no treatment control plotted on the log-scale x-axis at <1 nM; n=1 donor, standard deviation plotted from technical duplicates.
as §1, with “52: INX-SM-1,” for “51:”, “INX-SM-4” for “INX-SM-4,”, “INX-SM-6” for “INX-SM-1”, “IL-1β” for “IL-1β (left) and IL-6 (right)”, “levels” for “levels were”, “ng/ml” for “ng/mL”
(§2) FIG. 53: INX-SM-9, INX-SM-31 and INX-SM-35 inhibit IL-1β (top) and IL-6 (bottom) production. Cytokine levels measured at 24 hr for human PBMCS incubated with 1 ng/mL LPS and serial dilutions (1000-0.2 nM) of steroid payloads, with the no treatment control plotted on the log-scale x-axis at <0.2 nM; n=2 donors-representative donor shown. Standard deviation plotted from technical duplicates.
as §2, with “54: INX-SM-32 inhibits” for “53: INX-SM-9, INX-SM-31 and INX-SM-35 inhibit”, “(500-1” for “(1000-0.2”, “<1” for “<0.2”, “n=2. Representative” for “n=2 donors-representative”
Cytokine levels measured at 24 hr for human PBMCS incubated with 1 ng/ml LPS and serial dilutions (1000-0.5 nM) of steroid payloads, with the no treatment control plotted on the log-scale x-axis at <0.5 nM; n=1 donor, standard deviation plotted from technical duplicates.
FIG. 56: INX-SM-2 and INX-SM-7 show inhibition in IL-1β. Average Cytokine levels measured at 24 hr for human PBMCS incubated with 1 ng/ml LPS and serial dilutions (1000-0.16 nM) of steroid payloads, with the no treatment control plotted on the log-scale x-axis at <0.16 nM; n=1, standard deviation plotted from technical duplicates. […]
Average cytokine levels measured at 24 hr for human PBMC incubated with 1 ng/ml LPS and serial dilutions (100-0.032 nM) of glucocorticoid payloads; n=1, mean of technical duplicates.
Average cytokine levels measured at 24 hr for human PBMC incubated with 1 ng/mL LPS and serial dilutions (1000-0.32 nM) of glucocorticoid payloads; n=1, mean of technical duplicates.
Cytokine levels measured at 24 hr for human PBMC incubated with 1 ng/mL LPS and serial dilutions (1000-0.5 nM) of steroid payloads, with the no treatment control plotted on the log-scale x-axis at <0.5 nM; n=1 donor, mean of technical duplicates plotted.
Average cytokine levels for A. hull-1β B. huIL-6 measured at 24 hr for human PBMC incubated with 1 ng/mL LPS and serial dilutions (1000-0.16 nM) of conjugated steroid linker payloads, with the no treatment control plotted on the log-scale x-axis at <0.16 nM; n=1, standard deviation plotted from technical duplicates. Values above the ULOQ (12,500 pg/mL for IL-1b and 150,000 pg/mL for IL-6) were plotted as the extrapolated value.
Average cytokine levels for IL-1β measured at 24 hr for human PBMC incubated with 1 ng/mL LPS and serial dilutions (1000-0.16 nM) of conjugated steroid linker payloads, with the no treatment control plotted on the log-scale x-axis at <0.16 nM; n=1, mean plotted of technical duplicates
Average cytokine levels for IL-1β measured at 24 hr for human PBMC incubated with 1 ng/mL LPS and serial dilutions (1000-0.16 nM) of conjugated steroid linker payloads, with the no treatment control plotted on the log-scale x-axis at <0.16 nM; n=1, mean plotted of technical duplicates.
FIG. 66: Analogs of INX V are potent relative to INX231J. […]

[2] = Experiment 3: free payload 1000-0.2 nM, 24 hr, n=2 donors

Compound	inhibition of IL-1β production (human PBMC)	potency of free payloads (conclusions) [1]	inhibition of IL-6 production (human PBMC)	further results
C[C@]12C=CC(=O)C=C1[C@@H](F)C[C@H]1[C@@H]3C[C@H]4O[C@@H](c5ccc(CC6CC7(CC(N)C7)C6)cc5)O[C@@]4(C(=O)CO)[C@@]3(C)C[C@H](O)[C@@]12F (stereo partly drawn) [INX-SM-25, (2S,6aS,6bR,7S,8aS,8bS,10R,11aR,12aS,12bS)-10-(4-((6-aminospiro[3.3]heptan-2-yl)methyl)phenyl)-2,6b-difluoro-7-hydroxy-8b-(2-hydroxyacetyl)-6a,8a-dimethyl-1,2,6a,6b,7,8,8a,8b,11a,12,12a,12b-dodecahydro-4H-naphtho[2′,1′:4,5]indeno[1,2-d][1,3]dioxol-4-one]	robust inhibition	–	–	inhibition of IL-1β production ([1]; Experiment 8: free payload 1000-0.5 nM): robust inhibition in IL-1B production
C[C@]12C=CC(=O)C=C1CC[C@@H]1[C@@H]2[C@@H](O)C[C@@]2(C)[C@H]1C[C@H]1O[C@@H](c3ccc(CC4COC5(CNC5)C4)cc3)O[C@]12C(=O)CO (stereo partly drawn) [INX-SM-31, (6aR,6bS,7S,8aS,8bS,11aR,12aS,12bS)-10-(4-((5-oxa-2-azaspiro[3.4]octan-7-yl)methyl)phenyl)-7-hydroxy-8b-(2-hydroxyacetyl)-6a,8a-dimethyl-1,2,6a,6b,7,8,8a,8b,11a,12,12a,12b-dodecahydro-4H-naphtho[2′,1′:4,5]indeno[1,2-d][1,3]dioxol-4-one]	inhibit	lowest potency among the R stereoisomers of the series	inhibit	inhibition of IL-1β production [1, 2]: dose dependent inhibition in IL-1β production; also recorded: the least potent compound among these compounds tested
C[C@]12C=CC(=O)C=C1CC[C@@H]1[C@@H]2[C@@H](O)C[C@@]2(C)[C@H]1C[C@H]1O[C@@H](c3ccc(CC4CC5(CC(N)C5)C4)cc3)O[C@]12C(=O)CO (stereo partly drawn) [INX-SM-32, (6aR,6bS,7S,8aS,8bS,10R,11aR,12aS,12bS)-10-(4-((6-aminospiro[3.3]heptan-2-yl)methyl)phenyl)-7-hydroxy-8b-(2-hydroxyacetyl)-6a,8a-dimethyl-1,2,6a,6b,7,8,8a,8b,11a,12,12a,12b-dodecahydro-4H-naphtho[2′,1′:4,5]indeno[1,2-d][1,3]dioxol-4-one]	inhibits	–	inhibits	inhibition of IL-1β and IL-6 production ([1]; Experiment 4: free payload 500-1 nM, 24 hr, n=2): dose dependent inhibition in IL-1β and IL-6 production
C[C@]12C=CC(=O)C=C1CC[C@@H]1[C@@H]2[C@@H](O)C[C@@]2(C)[C@H]1C[C@H]1O[C@@H](c3ccc(CC4(N)COC4)cc3)O[C@]12C(=O)CO [INX-SM-33, (6aR,6bS,7S,8aS,8bS,10R,11aR,12aS,12bS)-10-(4-((3-aminooxetan-3-yl)methyl)phenyl)-7-hydroxy-8b-(2-hydroxyacetyl)-6a,8a-dimethyl-1,2,6a,6b,7,8,8a,8b,11a,12,12a,12b-dodeca hydro-4H-naphtho[2′,1′:4,5]indeno[1,2-d][1,3]dioxol-4-one]	modest inhibition	lowest potency among the R stereoisomers of the series	modest inhibition	inhibition of IL-1β and IL-6 production ([1]; Experiment 5: free payload 1000-0.5 nM, 24 hr): modest inhibition of cytokine production
C[C@]12C=CC(=O)C=C1CC[C@@H]1[C@@H]2[C@@H](O)C[C@@]2(C)[C@H]1C[C@H]1CN(c3ccc(CC45CC(N)(C4)C5)cc3)C[C@]12C(=O)CO [INX-SM-34, (6aR,6bS,7S,8aS,8bS,11aR,12aS,12bS)-10-(4-((3-aminobicyclo[1.1.1]pentan-1-yl)methyl)phenyl)-7-hydroxy-8b-(2-hydroxyacetyl)-6a,8a-dimethyl-1,6a,6b,7,8,8a,8b,9,10,11,11a,12,12a,12b-tetradecahydronaphtho[2′,1′:4,5]indeno[1,2-c]pyrrol-4 (2H)-one 2,2,2-trifluoroacetate]	weakly inhibit	–	weakly inhibit	inhibition of IL-1β and IL-6 [1]: weakly inhibit IL-1β and IL-6
C[C@]12C=CC(=O)C=C1CC[C@@H]1[C@@H]2[C@@H](O)C[C@@]2(C)[C@H]1C[C@H]1O[C@@H](c3ccc(CC4(N)CC(F)(F)C4)cc3)O[C@]12C(=O)CO [INX-SM-35, (6aR,6bS,7S,8aS,8bS,10R,11aR,12aS,12bS)-10-(4-((1-amino-3,3-difluorocyclobutyl)methyl)phenyl)-7-hydroxy-8b-(2-hydroxyacetyl)-6a,8a-dimethyl 1,2,6a,6b,7,8,8a,8b,11a,12,12a,12b-dodecahydro-4H-naphtho[2′,1′:4,5]indeno[1,2-d][1,3]dioxol-4-one]	inhibit	–	inhibit	inhibition of IL-1β production [1, 2]: dose dependent inhibition in IL-1β production
C[C@]12C=CC(=O)C=C1CC[C@@H]1[C@@H]2[C@@H](O)C[C@@]2(C)[C@H]1C[C@H]1CN(c3ccc(CC4CC5(CC(N)C5)C4)cc3)C[C@]12C(=O)CO (stereo partly drawn) [INX-SM-37, (6aR,6bS,7S,8aS,8bS,11aR,12aS,12bS)-10-(4-((6-aminospiro[3.3]heptan-2-yl)methyl)phenyl)-7-hydroxy-8b-(2-hydroxyacetyl)-6a,8a-dimethyl-1,6a,6b,7,8,8a,8b,9,10,11,11a,12,12a,12b-tetradecahydronaphtho[2′,1′:4,5]indeno[1,2-c]pyrrol-4 (2H)-one]	weakly inhibits	lowest potency among the R stereoisomers of the series	–	inhibition of IL-1β ([1]; Experiment 11: free payloads 1000-0.15 nM): weakly inhibits IL-1β
C[C@]12C=CC(=O)C=C1CC[C@@H]1[C@@H]2[C@@H](O)C[C@@]2(C)[C@H]1C[C@H]1CN(c3ccc(Cc4cccc(N)c4)cc3)C[C@]12C(=O)CO [INX-SM-40, (6aR,6bS,7S,8aS,8bS,11aR,12aS,12bS)-10-(4-(3-aminobenzyl)phenyl)-7-hydroxy-8b-(2-hydroxyacetyl)-6a,8a-dimethyl-1,6a,6b,7,8,8a,8b,9,10,11,11a,12,12a,12b-tetradecahydronaphtho[2′,1′:4,5]indeno[1,2-c]pyrrol-4 (2H)-one]	weakly inhibit	–	weakly inhibit	inhibition of IL-1β and IL-6 [1]: weakly inhibit IL-1β and IL-6

From US20250108119A1, “NOVEL STEROID PAYLOADS, STEROID LINKERS, ADCs CONTAINING AND USE THEREOF” (IMMUNEXT, INC., priority 2021, published 2025)
